According to US9469606B2, “Wnt/b-catenin inhibitors and methods of use” (The General Hospital Corporation, priority 2011, dated 2016):

What was measured:
normal cells = experiment: Cytotoxicity in normal cells; type: cell-based
From the text: (§1) See, for example: • Polakis P. Drugging Wnt signalling in cancer. EMBO J. 2012 May 22; 31(12):2737-46; Bialkowska A B, Yang V W. High-throughput screening strategies for targeted identification of therapeutic compounds in colorectal cancer. Future Oncol. 2012 March; 8(3):259-72; • Huang S M, Mishina Y M, Liu S, Cheung A, Stegmeier F, Michaud G A, Charlat O, Wiellette E, Zhang Y, Wiessner S. Hild M, Shi X, Wilson C J, Mickanin C. Myer V, Fazal A, Tomlinson R, Serluca F, Shao W, Cheng H, Shultz M, Rau C, Schirle M, Schlegl J, Ghidelli S, Fawell S, Lu C, Curtis D, Kirschner M W, Lengauer C. Finan P M, Tallarico J A, Bouwmeester T, Porter J A, Bauer A, Cong F. Tankyrase inhibition stabilizes axin and antagonizes Wnt signalling. Nature. 2009 Oct. 1; 461(7264):614-20; • Chen B, Dodge M E, Tang W, Lu J, Ma Z, Fan C W, Wei S, Hao W, Kilgore J, Williams N S, Roth M G, Amatruda J F. Chen C. Lum L. Small molecule-mediated disruption of Wnt-dependent signaling in tissue regeneration and cancer. Nat Chem. Biol. 2009 February; 5(2): 100-7; • Thorne C A, Hanson A J, Schneider J, Tahinci E, Orton D, Cselenyi C S, Jernigan K K, Meyers K C, Hang B I, Waterson A G, Kim K, Melancon B, Ghidu V P, Sulikowski G A, LaFleur B, Salic A, Lee L A, Miller D M 3rd, Lee E. Small-molecule inhibition of Wnt signaling through activation of casein kinase 1α. […]

[1] = tested on: Wnt/β-catenin-dependent cancer cells; experiment: Colony formation; type: cell-based; settings: a number of Wnt/β-catenin-dependent cancer cells
From the text: as §1

[2] = tested on: Wnt/β-catenin-dependent cancer cells; experiment: Cytotoxicity in Wnt/β-catenin-dependent cancer cells; type: cell-based
From the text: as §1

β-catenin/TCF = experiment: TCF/LEF reporter (TOP-Luciferase) assay in Wnt-dependent HCT116; type: cell-based, human
From the text: as §1

β-catenin [3] = experiment: Western blotting and immunoprecipitation of β-catenin forms; type: cell-based
From the text: as §1, with “1α. Nat Chem. Biol. 2010 November; 6(11):829-36; • Wei W, Chua M S. Grepper S, So S. Small molecule antagonists of Tcf4/beta-catenin complex inhibit the growth of HCC cells in vitro and in vivo. Int J Cancer. 2010 May 15; 126(10):2426-36; • Lepourcelet M, Chen Y N, France D S, Wang H, Crews P, Petersen F, Bruseo C, Wood A W, Shivdasani R A. Small-molecule antagonists of the oncogenic Tcf/beta-catenin protein complex. Cancer Cell. 2004 January; 5(1):91-102; • Grossmann T N, Yeh J T, Bowman B R, Chu Q, Moellering R E, Verdine G L. Inhibition of oncogenic Wnt signaling through direct targeting of β-catenin. Proc Natl Acad Sci USA. 2012 Oct. 15.” for “1α.”

[4] = tested on: beta-catenin target gene promoters; experiment: ChIP-RT-PCR of β-catenin recruitment to target promoters in HCT116 cells; type: cell-based, human
From the text: as §1

[5] = tested on: β-catenin/TCF-dependent genes; experiment: Wnt/β-catenin target gene expression (real-time quantitative PCR, protein level); type: cell-based
Protocol: A. mRNA expression was measured by Real-time quantitative PCR.
as §1, with “1α. Nat Chem. Biol. 2010 November; 6(11):829-36; • Wei W, Chua M S. Grepper S, So S. Small molecule antagonists of Tcf4/beta-catenin complex inhibit the growth of HCC cells in vitro and in vivo. Int J Cancer. 2010 May 15; 126(10):2426-36; • Lepourcelet M, Chen Y N, France D S, Wang H, Crews P, Petersen F, Bruseo C, Wood A W, Shivdasani R A. Small-molecule antagonists of the oncogenic Tcf/beta-catenin protein complex. Cancer Cell. 2004 January; 5(1):91-102; • Grossmann T N, Yeh J T, Bowman B R, Chu Q, Moellering R E, Verdine G L. Inhibition of oncogenic Wnt signaling through direct targeting of β-catenin. Proc Natl Acad Sci USA. 2012 Oct. 15.” for “1α.”

β-catenin [6] = experiment: Wnt-induced β-catenin accumulation; type: cell-based
From the text: as §1

mammary tumor = experiment: Spontaneous mouse model of breast cancer (MMTV-Wnt1); type: in vivo; settings: MMTV-Wnt1 tumor mice
From the text: Raj L, Ide T, Gurkar A U, Foley M, Schenone M, Li X, Tolliday N J, Golub T R, Carr S A, Shamji A F, Stern A M, Mandinova A, Schreiber S L, Lee S W. Selective killing of cancer cells by a small molecule targeting the stress response to ROS. Nature. 2011 Jul. 13; 475(7355):231-4; • Huang S, Li Y, Chen Y, Podsypanina K, Chamorro M, Olshen A B, Desai K V, Tann A, Petersen D, Green J E, Varmus H E. Changes in gene expression during the development of mammary tumors in MMTV-Wnt-1 transgenic mice. Genome Biol. 2005; 6(10):R84.

HT115 colon cancer cells = experiment: Xenograft study, HT115; type: in vivo; settings: HT115 xenograft in mice, 20 mg/kg daily i.p.
Protocol: (§2) A, HCT116 colon cancer cells; B, HT115 colon cancer cells; and C, H23 human lung cancer cells. 20 mg/kg was injected daily via i.p.
as §1, with “cancer.” for “cancer. Nat Chem. Biol. 2009 February; 5(2): 100-7; • Thorne C A, Hanson A J, Schneider J, Tahinci E, Orton D, Cselenyi C S, Jernigan K K, Meyers K C, Hang B I, Waterson A G, Kim K, Melancon B, Ghidu V P, Sulikowski G A, LaFleur B, Salic A, Lee L A, Miller D M 3rd, Lee E. Small-molecule inhibition of Wnt signaling through activation of casein kinase 1α.”

[7] = tested on: HCT116 colon cancer cells; experiment: Xenograft study, HCT116; type: in vivo; settings: HCT116 xenograft in mice, 20 mg/kg daily i.p.
Protocol: as §2
as §1, with “cancer.” for “cancer. Nat Chem. Biol. 2009 February; 5(2): 100-7; • Thorne C A, Hanson A J, Schneider J, Tahinci E, Orton D, Cselenyi C S, Jernigan K K, Meyers K C, Hang B I, Waterson A G, Kim K, Melancon B, Ghidu V P, Sulikowski G A, LaFleur B, Salic A, Lee L A, Miller D M 3rd, Lee E. Small-molecule inhibition of Wnt signaling through activation of casein kinase 1α.”

[8] = tested on: H23 human lung cancer cells; experiment: Xenograft study, H23; type: in vivo; settings: H23 xenograft in mice, 20 mg/kg daily i.p.
Protocol: as §2
as §1, with “cancer.” for “cancer. Nat Chem. Biol. 2009 February; 5(2): 100-7; • Thorne C A, Hanson A J, Schneider J, Tahinci E, Orton D, Cselenyi C S, Jernigan K K, Meyers K C, Hang B I, Waterson A G, Kim K, Melancon B, Ghidu V P, Sulikowski G A, LaFleur B, Salic A, Lee L A, Miller D M 3rd, Lee E. Small-molecule inhibition of Wnt signaling through activation of casein kinase 1α.”

β-catenin [9] = experiment: β-catenin protein level and phosphorylation in HCT116 cells; type: cell-based, human
From the text: as §1

[10] = tested on: H460 human lung cancer cells; experiment: Wnt/b-catenin-independent tumor growth, H460; type: in vivo; settings: Wnt/b-catenin-independent H460 tumors in mice
From the text: as §1

[11] = tested on: Wnt/β-catenin-independent cancer cells; experiment: Cytotoxicity in Wnt/β-catenin-independent cancer cells; type: cell-based
From the text: as §1

COC(=O)c1cccc(NS(=O)(=O)c2ccc(C)cc2)c1 [OC0021, methyl 3-{[(4-methylphenyl)sulfonyl]amino}benzoate]
cytotoxic effect (normal cells): no significant cytotoxic
colony formation [1]: inhibits colony formation
cytotoxic effect [2]: cytotoxic effect
TCF/LEF reporter activity (β-catenin/TCF): inhibits the TCF/LEF reporter activity
transcriptional activity of β-catenin/TCF (β-catenin/TCF; human colon cancer cells HCT116 with beta-catenin mutation): inhibits the transcriptional activity of β-catenin/TCF in a dose dependent manner
ABC (Active form of b-catenin) (β-catenin [3]): supresses ABC
expression of oncogene Myc target gene (β-catenin [3]): inhibits the expression of oncogene Myc target gene
phosphorylated β-catenins (phospho-β-catenin-33/37/41; -41/45) (β-catenin [3]): increases phosphorylated β-catenins
beta-catenin binding its target gene promoters [4]: inhibits beta-catenin binding its target gene promoters
protein level of endogenous β-catenin/TCF-dependent genes, Cyclin D1 and c-Myc [5]: down regulates the protein level
stability of Axin1 and Axin2 [5]: enhances stability of Axin1 and Axin2
Wnt/β-catenin-mediated gene transcription (mRNA expression of Myc, cyclin D1, Axin1 and 2) ([5]; Real-time quantitative PCR): modulates Wnt/β-catenin-mediated gene transcription
Wnt-induced β-catenin accumulation (β-catenin [6]): inhibits Wnt-induced β-catenin accumulation
growth of mammary tumor (mammary tumor): inhibits the growth of mammary tumor
anti-tumor activity (HT115 colon cancer cells): anti-tumor activity
anti-tumor activity [7]: anti-tumor activity
anti-tumor activity [8]: anti-tumor activity
beta-catenin protein levels (β-catenin [9]; HCT116 cells): decreases beta-catenin protein levels
β-catenin degradation / phosphorylation at T41/S45 (β-catenin [9]; HCT116 colon cancer cells): promotes β-catenin degradation via increased β-catenin phosphorylation at T41/S45
tumor growth [10]: does not affect
cytotoxic effect [11]: no significant cytotoxic
